“And” between values parts separate entries of the source, which are not always exact repeats. Equal entries are not always repeated.
Test system: Lmna G609G/+ mouse
Experiment: Body weight of Lmna G609G/+ mice
Format: in vivo
Details: oral administration, relative body weight; for Lmna G609G/+ body weight, Ave: group average; for Lmna G609G/+ body weight: individual mouse
Excerpt: Fig. 3 In vivo favorable effect of SLC-D011. A Gross morphology of Lmna^G609G/G609G mice (10 weeks old) was ameliorated after injection with SLC-D011. At the same age, the experimental group (D011) of mice were larger than vehicle-injected control (Con) subjects regardless of gender. B, C SLC-D011 increases body weight B and extends life span C of Lmna^G609G/G609G progeria model mouse (Con: n = 8; SLC-D011: n = 8). Compared with 14.8 weeks of average (ave) life span with maximum (max) life span of 15.5 weeks, 20 mg/kg of intraperitoneal (i.p) injection (twice a week) of SLC-D011 could extend the life span upto 19 weeks (max = 21 weeks). Lmna^G609G/G609G mice were injected with SLC-D011 from age of 5-week old, *p < 0.05. D Gross morphology of SLC-D011 injected Lmna^G609G/+ mouse. […] E SLC-D011 increases body weights of Lmna^G609G/+ mice (Con: n = 10; SLC-D011: n = 11), *p < 0.05. F Favorable effect of SLC-D011 on life span of Lmna^G609G/+ mice. Compared with vehicle-injected control group (ave = 46.7 weeks and max = 48 weeks), SLC-D011 treatment obviously extended the average life span to 63 weeks (max = 64 weeks). The injection was started from 32 weeks old, **p < 0.001. “Con” means vehicle (a solvent composed of DMSO and PBS)-injected mouse group. TEXT PRINTED IN THE PICTURE: (C) D011: Kaplan-Meier survival curve in Lmna^G609G/G609G: Ave=19; Kaplan-Meier survival curve in Lmna^G609G/G609G: Max=21 | (F) D011: Kaplan-Meier survival curve in Lmna^G609G/+: Ave=63; Kaplan-Meier survival curve in Lmna^G609G/+: Max=64 DOUBTS OF THE COPYIST ABOUT THIS PICTURE: Panels C and F: the Ave/Max labels are not printed with a group name. They are assigned to D011 (solid curve) or Con (dashed curve) only by their position beside the curves. / Panel C Ave=14.8, Max=15.5 and panel F Ave=46.7, Max=48 stand beside the dashed Con curve. They are left out because Con is the control group, not a substance. / No unit is printed with the Ave/Max values. Only the axis reads Age (weeks).
Animal experiments were performed in a facility certified by the Association for Assessment and Accreditation of Laboratory Animal Care in compliance with animal policies approved by Pusan National University. The mouse work was performed under the study protocol PNU-2019-2181, as approved by the Institutional Animal Care and Use Committee. Lmna^G609G/609G mice were generated by timed mating of heterozygous Lmna^G609G/+ provided by Carlos López-Otín (Universidad de Oviedo, Asturias, Oviedo, Spain). SLC-D011 was mixed with dimethyl sulfoxide (DMSO) and phosphate-buffered saline (PBS). It was then intraperitoneally injected into mice (20 mg/kg twice per week from 5-week-old). SLC-D011 and lonafarnib were orally administrated to mice daily at a concentration of 10 mg/ml in monoolein-based solution. Lonafarnib was generously provided by Merck, the Progeria Research Foundation (PRF) and the PRF Lonafarnib Pre-clinical Drug Supply Program. Control mice were treated with monoolein-based solution alone in the same way. Lmna^G609G/609G mice were treated with clear chemical solution throughout the life span, starting from 5 weeks of age. Lmna^G609G/+ mice were treated via intraperitoneal and oral administrations, starting from 32 weeks of age.
Fig. S10. Or al administration of SLC-D011 suppresses premature aging features of LmnaG609G/+ mi c e . A.
Gross morphology of SLC-D011 treated Lmna G609G/+ mice at 36 weeks old. B. Oral administration of SLC-
D011 increases body weight s of LmnaG609G/+ mi c e (untreated: n=11; SLC-D011: n=12), * p<0.05. C. […]
intensity of H3K9me3 levels in lung, liver, and kidney tissues of age-matched Lmn a +/+ mouse, untreated
LamnG609G/+ mouse and two progerinin- treated LmnaG609G/+ mice (n = 2 independent experiments; one
Student’s t -test), **p < 0.001,*p< 0.05, N.S: not significant .AU, arbitrary units.
Fig. S12. […] A. SLC-D011, compar ed to lonafarnib, reduces […]

NC(=O)N1CCC(CC(=O)N2CCC([C@H]3c4ncc(Br)cc4CCc4cc(Cl)cc(Br)c43)CC2)CC1 [lonafarnib, reference compound]
Lmna G609G/+ body weight, Ave (week 36): 1
Lmna G609G/+ body weight (week 36): 1
Lmna G609G/+ body weight, Ave (week 38): 0.9406
Lmna G609G/+ body weight (week 38): 0.9091 and 0.9 and 0.96 and 0.95 and 0.913 and 0.9565
Lmna G609G/+ body weight, Ave (week 40): 0.9202
Lmna G609G/+ body weight (week 40): 0.8636 and 0.85 and 0.92 and 0.9 and 0.96 and 0.913 and 0.9565 and 0.95 and 0.9091
Lmna G609G/+ body weight, Ave (week 42): 0.88
Lmna G609G/+ body weight (week 42): 0.8636 and 0.8 and 0.84 and 0.85 and 0.92 and 0.913 and 0.88 and 0.9091
Lmna G609G/+ body weight, Ave (week 44): 0.8157
Lmna G609G/+ body weight (week 44): 0.7727 and 0.7 and 0.8 and 0.88 and 0.7273 and 0.8182 and 0.85
Lmna G609G/+ body weight, Ave (week 46): 0.7411
Lmna G609G/+ body weight (week 46): 0.7273 and 0.65 and 0.72 and 0.75 and 0.76 and 0.7 and 0.8182 and 0.8
Lmna G609G/+ body weight, Ave (week 48): 0.6808
Lmna G609G/+ body weight (week 48): 0.6818 and 0.6 and 0.64 and 0.75 and 0.68 and 0.7 and 0.7273 and 0.72
Lmna G609G/+ body weight, Ave (week 50): 0.6132
Lmna G609G/+ body weight (week 50): 0.5909 and 0.55 and 0.6 and 0.7 and 0.64 and 0.5 and 0.6957 and 0.65 and 0.6818
Lmna G609G/+ body weight, Ave (week 52): 0.4605
Lmna G609G/+ body weight (week 52): 0.4545 and 0 and 0.4 and 0.55 and 0.48 and 0.5217 and 0.6957 and 0.5 and 0.44
Lmna G609G/+ body weight, Ave (week 54): 0.1559
Lmna G609G/+ body weight (week 54): 0.4545 and 0 and 0.44 and 0.5217
